{"source": "patent US20180250233A1", "about": "“TABLETS HAVING MEDIA INDEPENDENT ACTIVE SUBSTANCE DELIVERY” (MERCK PATENT GMBH, priority 2015, published 2018)", "origin": "cited, not measured here"}
{"smiles": "CC(C)NCC(O)COc1cccc2ccccc12", "note": "(centres unmarked) [propranolol]", "values": [{"measurement": "elimination half-life", "setting": "in vivo", "value": "2 to 6", "unit": "h"}, {"measurement": "bioavailability", "setting": "oral administration, pronounced first-pass metabolism", "value": "25-30%"}]}
